The source made the active and inactive calls.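 How the source made its calls: active means at least one rat sex group has a carcinogenic potency value and tumor site recorded; inconclusive means only rat studies were judged inadequate by the national testing program; inactive means no potency or tumor site, with negative rat experiments.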
System: rat chronic carcinogenicity bioassay, TD50
Assay: DSSTox (CPDBAS) Carcinogenic Potency Database Summary Rat Bioassay Results
Settings: TD50_Rat_Note: no positive results; TargetSites_Rat_Female: no positive results
Method in brief: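 Chronic long-term rat cancer bioassays from literature and NCI/NTP, taking the most positive result per sex. TD50 in mmol converted to a 1–100 Activity Score from log10(1/TD50). Mixtures lacking TD50 scored 50.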

| Structure (SMILES) | outcome |
| --- | --- |
| Clc1ccccc1Cl | inactive; no positive results |
| O=NN1CCOC(O)C1 (stereo not given) | inactive |
| Cc1ccc2ncccc2c1 | inactive; no positive results |
| CC(=O)C(N=Nc1ccc(-c2ccc(N=NC(C(C)=O)C(=O)Nc3ccccc3)c(Cl)c2)cc1Cl)C(=O)Nc1ccccc1 (stereo not given) | inactive; no positive results |
| CCC(=O)C(CC(C)N(C)C)(c1ccccc1)c1ccccc1 (stereo not given) | inactive; no positive results |
| O=C(O)c1ccc(N=Nc2ccc(O)c(C(=O)O)c2)cc1 | inactive; no positive results |
| CCc1cc(C(N)=S)ccn1 | inactive; no positive results |
| P | inactive; no positive results |
| Nc1c(Cl)c(Cl)nc(C(=O)O)c1Cl | inactive; no positive results |
| NC(=S)NNC(N)=S | inactive; no positive results |
| CC1(C)S[C@@H]2[C@H](NC(=O)[C@H](N)c3ccccc3)C(=O)N2[C@H]1C(=O)O | inactive; no positive results |
| Nc1cc(Cl)cc(C(=O)O)c1Cl | inactive; no positive results |
| ClC=C(Cl)Cl | inactive; no positive results |
| CN(C)C(=S)SSC(=S)N(C)C | inactive; no positive results |
| CN(C)c1ccc(N=NS(=O)(=O)O)cc1 | inactive; no positive results |
| C=C/C=N/O | inactive; no positive results |

| Structure (SMILES) | outcome |
| --- | --- |
| CCN(CC)c1cc2oc3cc(=[N+](CC)CC)c(C)cc-3c(-c3ccc(S(=O)(=O)O)cc3S(=O)(=O)[O-])c2cc1C | inactive; no positive results |
| CNCCC(Oc1ccc(C(F)(F)F)cc1)c1ccccc1 (stereo not given) | inactive; no positive results |
| O=S(=O)(O)c1ccc(N=Nc2cc(S(=O)(=O)O)c3ccccc3c2O)c2ccccc12 | inactive; no positive results |
| OCc1ccccc1 | inactive; no positive results |
| CN(C)CCN(Cc1cccs1)c1ccccc1 | inactive; no positive results |
| COP(=O)(OC)OC | inactive; no positive results |
| O=C(O)CCCC/C=C(\c1ccccc1)c1cccnc1 | inactive; no positive results |
| CC(C)NCC(O)c1ccc(NS(C)(=O)=O)cc1 (stereo not given) | inactive; no positive results |
| CC(Cl)Cl | inactive; no positive results |
| CCC(O)OC(O)CC (stereo not given) | inactive; no positive results |
| O=S(=O)(O)c1ccc(N=Nc2c(O)ccc3cc(S(=O)(=O)O)ccc23)cc1 | inactive; no positive results |
| NC(=O)CCCCC(N)=O | inactive; no positive results |
| C[C@H]1CCCC(=O)CCC/C=C/c2cc(O)cc(O)c2C(=O)O1 | inactive; no positive results |
| CC(=O)OCc1ccccc1 | inactive; no positive results |
| COc1c(Cl)c(Cl)c([N+](=O)[O-])c(Cl)c1Cl | inactive; no positive results |

Same assay, conditions: TD50_Rat_Note: positive test results only by intraperitoneal or intravenous injection; TD50 is harmonic mean of more than one positive; TargetSites_Rat_Female: peritoneal cavity; stronger effect = lower value

| Structure (SMILES) | Potency [mg/kg/day] |
| --- | --- |
| O=NN(CCCl)C(=O)N[C@@H]1[C@@H](O)[C@H](O)[C@@H](CO)O[C@@H]1O | 0.0375 |

Same assay, conditions: TD50_Rat_Note: positive test results only by intraperitoneal or intravenous injection; TargetSites_Rat_BothSexes: pancreas; stronger effect = lower value

| Structure (SMILES) | Potency [mg/kg/day] |
| --- | --- |
| [N-]=[N+]=CC(=O)OC[C@H](N)C(=O)O | 0.793 |

Same assay, conditions: TD50_Rat_Note: positive test results only by intraperitoneal or intravenous injection; TargetSites_Rat_Female: NTP bioassay inadequate; stronger effect = lower value

| Structure (SMILES) | Potency [mg/kg/day] |
| --- | --- |
| Nc1ncn([C@@H]2O[C@H](CO)[C@@H](O)[C@H]2O)c(=O)n1 | 0.17 |

Same assay, conditions: TargetSites_Rat_Female: hematopoietic system; kidney; mammary gland; stronger effect = lower value

| Structure (SMILES) | Potency [mg/kg/day] |
| --- | --- |
| O=C1O[C@@H](CN2CCOCC2)CN1/N=C/c1ccc([N+](=O)[O-])o1 | 6.33 |

Same assay, conditions: TargetSites_Rat_Female: hematopoietic system; mammary gland; uterus; stronger effect = lower value

| Structure (SMILES) | Potency [mg/kg/day] |
| --- | --- |
| CN(C)/N=N/c1nc[nH]c1C(N)=O | 0.71 |

Same assay, conditions: TargetSites_Rat_Female: mammary gland; stronger effect = lower value

| Structure (SMILES) | Potency [mg/kg/day] |
| --- | --- |
| C[N+](=O)[O-] | 40.4 |
| Nc1ccc(-c2ccccc2)cc1 | 0.98 |

Same assay, conditions: TargetSites_Rat_Female: mesovarium; stronger effect = lower value

| Structure (SMILES) | Potency [mg/kg/day] |
| --- | --- |
| CC(C)(C)NCC(O)c1cc(O)cc(O)c1 (stereo not given) | 410 |

Same assay, conditions: TargetSites_Rat_Female: no positive results; stronger effect = lower value

| Structure (SMILES) | Potency [mg/kg/day] |
| --- | --- |
| CN(C)C(=O)Nc1ccc(Cl)cc1 | 131 |
| Nc1ccc(Cl)c(N)c1 | 315 |
| CC(O)CNC(=O)N(N=O)C(C)Cl (stereo not given) | 0.124 |

Same assay, conditions: stronger effect = lower value

| Structure (SMILES) | Potency [mg/kg/day] |
| --- | --- |
| CCCCCCCCCCN(C)N=O | 1.26 |
| ClCOCCl | 0.00357 |
| Cc1cc2c(nc1N)[nH]c1ccccc12 | 6.7 |

Reference: PubChem BioAssay AID1208 (EPA DSSTox, 2008)
